In patent publication US9913858B2, “Prevention and treatment of toxicosis” (priority 2013, dated 2018):
Marks after values point to notes of the source that are not given here.

Columns and labels:
[1] = system: lolitrem B toxicosis (Rye Grass Staggers); test: Gait analysis and time to falling; format: in vivo, sheep; conditions: for time to falling: by context untreated, toxin only
Method: Gait analysis was performed on entry to the trial and at designated time points throughout the trial as described above. To achieve this, animals were moved from their individual pens to an external yard in their cohort groups (five animals, one from each treatment). Animals were then encouraged to move at a run, initially in a group and then individually, for a minimum of three minutes per animal whilst their movement was captured on video and gait observations recorded.
Once all animals had been analysed the whole cohort was returned to their individual pens. Gait abnormalities such as stumbling, falling or disorientation were noted, including observation of Type 1 or Type 2 gait changes as described in Combs et, al., (2014). Type I movement disorder is defined as an impaired alternating movement (dysdiadochokinesia), bunny-hopping gait and failure to maintain an appropriate direction. Type 2 movement disorder is defined by increasing rigidity of limbs on forced movement resulting finally in tonic fore and hind limb extension with the animal collapsing into sternal or lateral recumbency (Combs, Rendell et at 2014). Scores between those denoted above were considered as a gradation between the stated clinical observations. Analysis of gait was performed using the following scale in Table 2 and a composite score noted for each animal for each day during the end of trial protocol. A total score out of 30 was determined for each animal. The higher the score the greater the locomotory disturbance. Time to falling was determined post trial by analysis of video material,
Animals that met the entry criteria (severe Type 2 gait abnormality and falling) were submitted to the end-of-trial protocol. […] Animals were subjected to the following tests on days 1 and 3: gait analysis, full neurological examination, venous blood and urine sampling and EMG. Only gait analysis was performed on day 2.

[2] = system: lolitrem B toxicosis (Rye Grass Staggers); test: Clinical and neurological signs in sheep fed lolitrem B-containing toxic feed with or without potassium bromide; format: in vivo
Method: Animals were exposed to a controlled diet containing 0.16 mg/kg body weight (BW) lolitrem B toxin rising to 0.27 mg/kg BW after 21 days exposure to toxic feed. Toxin was delivered as perennial rye grass seed (GA66 AR98, Grasslanz Technology Ltd, NZ) containing very high levels of lolitrem B toxin (11 ppm DM) as a component of the animal's feed intake.
On entry to the trial, all animals receiving toxic feed were exposed to a diet containing experimental ryegrass seed with a final lolitrem B concentration of 0.08 mg/kg LW, lucerne chaff and molasses 30% w/v for 3 days. After this induction period, the toxin content of the feed was increased to 0.16 mg/kg LW for the duration of the trial. […] Ryegrass seed constituted up to 65% of available Feed on Offer (FOO) by dry weight contributing a metabolisable energy of 12.1 Mj/kg DM.
At entry to the trial, all animals were subjected to a full clinical examination. Live weight was recorded. Venous blood and urine samples were collected for laboratory. Animals were also subjected to gait analysis, neurological examination including proprioceptive testing, cranial nerve examination and papillary light and menace reflexes. Electromyography (EMG) of tricep and neck muscles was performed. Gait analysis (see below) was repeated at three day intervals until onset of significant clinical signs and/or gait abnormality at which point animals were subjected to gait analysis daily. Gait analysis was recorded on video each occasion.
General clinical signs were also noted on a daily basis; these included observations of nervousness or agitation, changes in normal placement of body, limb or head position changes in faecal consistency, feeding behaviour or water consumption, observeable tremor of the body or head, eye position (strabismus) and movement (nystagmus), locomotory disturbances, or any other clinical changes worthy of note. Feed and water intake was monitored daily for the duration of the trial. Heart rate, respiration rate at rest and rectal temperature were also monitored daily.
Prophylactic sheep received a split loading dose of 300 mg/kg on day 1, 120 mg/kg (100 mg LD+20 mg/kg daily maintenance dose) on day 2, 120 mg/kg on day 3 and 20 mg/kg daily for the duration of the trial. An acute treatment dose of 300 mg/kg LW was used for the trial. Both prophylactic and acute treatment doses were envisaged to give serum concentrations of 750 to 1000 μg/ml for the duration of the initial weeks of the trial.
Group 1—Negative Control: lucerne chaff only;
Group 2—Positive Control: lucerne chaff containing 0.16 mg/kg LW lolitrem B;
Prophylactic treatment sheep (Groups 4 & 5) received a split loading dose of 300 mg/kg on day 1 of the trial, 120 mg/kg (100 mg LD 20 mg/kg daily maintenance dose) on day 2, 120 mg/kg on day 3 and 20 mg/kg daily thereafter. Acute therapy sheep were dosed with a single dose of 300 mg/kg on day of falling.
End of the trial was defined for Groups 2 and 3 as date of falling. Group 1 animals entered the end of trial protocol with their Group 2 counterparts. Group 4 and 5 animals entered the end of trial protocol after 22 days. This end of trial protocol consisted of the following analysis: • On Day 1: animals were subjected to a full clinical examination, gait analysis, urine and blood collection, neurological examination and EMG. • On Day 2: further gait analysis was recorded, • On Day 3: animals were again subjected to full clinical examination, gait analysis, urine and blood collection, neurological examination and EMG as well as live weight recorded prior to necropsy.

[3] = sheep, Group 2: toxic feed (lolitrem B 0.16 mg/kg LW), no treatment
[4] = sheep, Group 3: toxic feed plus single oral 300 mg/kg KBr on day of falling
[5] = sheep, Group 4: toxic feed plus prophylactic oral KBr (300, 120, 120 then 20 mg/kg daily), 22 days
[6] = sheep, Group 5: prophylactic oral KBr only, no toxic feed, 22 days

CC(C)=C[C@H]1O[C@H]2[C@H]3O[C@@]34[C@H](CC[C@@]3(C)[C@@]4(O)CC[C@H]4Cc5c([nH]c6ccc7c(c56)C[C@@H]5[C@@H](C7=O)C(C)(C)OC5(C)C)[C@@]43C)O[C@@H]2C(C)(C)O1 [lolitrem B]
composite gait scores over the same time course ([1]; Group 2 sheep, untreated intoxicated, p=0.05): increase
animals falling, no improvement over the same time period ([1]; positive control sheep, toxic feed, not treated with potassium bromide): 7/7
time to falling ([1]; printed as Group 3 Day 2): 59.0 ± 23.50 s
time to falling ([1]; printed as Group 3 Day 3): 51.52 ± 20.23 s
animals progressing to falling over the same timeframe (22 days) ([1]; sheep, Groups 2 and 3, toxic feed): 5
time from Type 1 to Type 2 gait changes ([2]; intoxicated sheep): approximately 9 days
Menace reflex ([2]; lolitrem B intoxicated sheep): either lost or reduced
pupillary light reflex ([2]; lolitrem B intoxicated sheep): normal
Ventral strabismus, animals affected ([2]; sheep, Group 2 (toxin only)): 9/9
Altered stance, mean number of days to onset (+/−s.e.m.) [2, 3]: 11.78(+/−2.58) days
Altered stance, number of animals affected [2, 3]: 9/9
Fine tremor, mean number of days to onset (+/−s.e.m.) [2, 3]: 8.22(+/−2.58) days
Fine tremor, number of animals affected [2, 3]: 9/9
First clinical signs, mean number of days to onset (+/−s.e.m.) [2, 3]: 7.56(+/−2.06) days
First clinical signs, number of animals affected [2, 3]: 9/9
Major body clonus, mean number of days to onset (+/−s.e.m.) [2, 3]: 17.33(+/−3.51) days
Major body clonus, number of animals affected [2, 3]: 3/9
Ventral strabismus, animals affected ([2]; sheep, Group 3 (toxin, acute KBr on day of falling)): 7/9
Ventral strabismus, animals affected ([2]; sheep, Group 4 (toxin plus prophylactic KBr)): 6

[Br-].[K+] [potassium bromide]
composite gait score, Day 1 (pre-treatment) to Day 2 (24 hours post treatment) ([1]; Group 3 sheep, lolitrem B toxin, oral 300 mg/kg LW potassium bromide, p=0.001): significant reduction
time to falling in intoxicated animals ([1]; intoxicated sheep, oral 300 mg/kg BW potassium bromide on day of falling): significantly improve
animals failing to fall when driven to movement for a continuous period of 5 minutes ([1]; intoxicated sheep, oral 300 mg/kg BW potassium bromide on day of falling, 24 and 48 hours after treatment): 8/9
animals progressing to falling in the designated 22 days of treatment ([1]; sheep, prophylactic potassium bromide plus toxic feed (Group 4)): one
Altered stance, mean number of days to onset (+/−s.e.m.) [2, 4]: 10.22(+/−2.10) days
Altered stance, number of animals affected [2, 4]: 9/9
Fine tremor, mean number of days to onset (+/−s.e.m.) [2, 4]: 12.43(+/−4.82) days
Fine tremor, number of animals affected [2, 4]: 7/9
First clinical signs, mean number of days to onset (+/−s.e.m.) [2, 4]: 8.56(+/−1.94) days
First clinical signs, number of animals affected [2, 4]: 9/9
Major body clonus, mean number of days to onset (+/−s.e.m.) [2, 4]: 11.67(+/−2.88) days
Major body clonus, number of animals affected [2, 4]: 3/9
animals showing evidence of mild anxiolysis ([2]; sheep, Group 4: toxic feed plus prophylactic oral KBr): ^aIncludes 4/9 animals showing evidence of mild anxiolysis
Altered stance, mean number of days to onset (+/−s.e.m.) [2, 5]: 8.33(+/−1.22) days
Altered stance, number of animals affected [2, 5]: 9/9
Fine tremor, mean number of days to onset (+/−s.e.m.) [2, 5]: 12.14(+/−4.45) days
Fine tremor, number of animals affected [2, 5]: 7/9
First clinical signs, mean number of days to onset (+/−s.e.m.) [2, 5]: 6.33(+/−1.73) days
First clinical signs, number of animals affected [2, 5]: 9/9^a
Major body clonus, mean number of days to onset (+/−s.e.m.) [2, 5]: 10.67(+/−2.65) days
Major body clonus, number of animals affected [2, 5]: 5/9
altered stance reported earlier than in toxin-only counterparts ([2]; sheep, Group 4 versus Groups 2 and 3): approximately two
animals showing evidence of mild anxiolysis ([2]; sheep, Group 5: prophylactic oral KBr only): ^bIncludes 5/9 animals showing evidence of mild anxiolysis
Altered stance, mean number of days to onset (+/−s.e.m.) [2, 6]: 11.0(+/−4.69) days
Altered stance, number of animals affected [2, 6]: 4/9
Fine tremor, mean number of days to onset (+/−s.e.m.) [2, 6]: 11.00(+/−0.0) days
Fine tremor, number of animals affected [2, 6]: 1/9
First clinical signs, mean number of days to onset (+/−s.e.m.) [2, 6]: 10.75(+/−4.46) days
First clinical signs, number of animals affected [2, 6]: 8/9^b
Major body clonus, mean number of days to onset (+/−s.e.m.) [2, 6]: 0 days
Major body clonus, number of animals affected [2, 6]: 0/9
range of onset of mild mood changes ([2]; sheep, potassium bromide at the prophylactic dose): 4 to 17 days
